Experimental data from patent publication US20250042855A1, “PERIPHERALLY AND LUMINALLY-RESTRICTED INHIBITORS OF THE SEROTONIN TRANSPORTER AS TREATMENTS FOR DISORDERS OF GASTROINTESTINAL MOTILITY AND GUT-BRAIN AXIS” (The Johns Hopkins University, priority 2021, published 2025).
Structures can show the parent of a compound that is named as a salt.

What was measured:
[1] = biological target: T1, serotonin transporter SERT (Homo sapiens, UniProt P31645); test: Uptake of serotonin (5-HT) in human HEK-293 cells, quantitation of [3H] serotonin; type: cell-based; settings: HEK293, 0.25 h, 10 micromolar concentration, 15 minutes @ 25° C., read-out: Activity Range: antagonism of uptake of serotonin (5-HT)
T1 construct: host or cells: HEK-293
Method: Uptake of serotonin (5-Hydroxytryptamine (5-HT)) in human HEK-293 cells embryonic kidney was measured according to the literature procedure by Gu H, Wall S. C. and Rudnick G. J Biol Chem. 1994 269, 7124. Using the following conditions: • Quantitation Method: Quantitation of [^3H] Serotonin • Vehicle: 0.50% DMSO • Incubation Time/Temp: 15 minutes @ 25° C. • Incubation Buffer: 5 mM Tris —HCl, 7.5 mM HEPES, pH 7.1, 120 mM NaCl, 5.4 mM KCl, • 1.2 mM CaCl2, 1.2 mM MgSO4, 5 mM DGlucose, 1 mM Ascorbic Acid
Any compound with minimum of 20% antagonism at 10 micromolar concentration as described above, is deemed a SERT inhibitor.

[2] = test system: gastric emptying in C57B/6 mice; test: Gastric emptying (phenol red) in IBS and control mice after 10 days of oral treatment; type: in vivo; settings: P<0.05; for gastric emptying: 10 mg/kg by gavage once a day for 10 days, versus vehicle
Source text: In this experiment our aim was to study the effects of N-(2-((diaminomethylene)amino)ethyl)-4-(((3S,4R)-4-(4-fluorophenyl)piperidin-3-yl)methoxy)benzamide (example 8) in healthy mice as well as those with a model of gastrointestinal dysmotility (irritable bowel syndrome). The IBS model was induced by mild neonatal colorectal irritation in C57B/6 mice; control mice received saline. Twenty μL of 0.5% acetic acid (AA) or saline were infused into the colorectum of mice during postnatal day 9-12. Pups were weaned at 3 weeks of age and allowed to grow up normally and tested after 8-12 weeks of age.
Male IBS and control mice were treated with vehicle, Example 8 (10 mg/kg) and paroxetine (10 mg/kg) by gavage (10 ml/kg) once a day for 10 days. On the day 9, mice were fasted overnight. On the day 10, mice were treated with drugs followed by gavage with 0.3 ml of 0.05% phenol red in methylcellulose solution. Fifteen minutes later, mice were sacrificed and the stomach was removed after ligating the cardia and pylorus with hemostats. One mouse was sacrificed immediately after gavage of phenol red (0 time) used as control. The stomachs were homogenized and phenol red were extracted. After measuring the density of phenol red, the gastric empty was calculated as
The data were analyzed by Two-WAY ANOVA followed by Student-Newman-Keuls post-hoc test.

[3] = IBS mice (neonatal acetic acid colorectal irritation)

T1 sequence (P31645 whole entry): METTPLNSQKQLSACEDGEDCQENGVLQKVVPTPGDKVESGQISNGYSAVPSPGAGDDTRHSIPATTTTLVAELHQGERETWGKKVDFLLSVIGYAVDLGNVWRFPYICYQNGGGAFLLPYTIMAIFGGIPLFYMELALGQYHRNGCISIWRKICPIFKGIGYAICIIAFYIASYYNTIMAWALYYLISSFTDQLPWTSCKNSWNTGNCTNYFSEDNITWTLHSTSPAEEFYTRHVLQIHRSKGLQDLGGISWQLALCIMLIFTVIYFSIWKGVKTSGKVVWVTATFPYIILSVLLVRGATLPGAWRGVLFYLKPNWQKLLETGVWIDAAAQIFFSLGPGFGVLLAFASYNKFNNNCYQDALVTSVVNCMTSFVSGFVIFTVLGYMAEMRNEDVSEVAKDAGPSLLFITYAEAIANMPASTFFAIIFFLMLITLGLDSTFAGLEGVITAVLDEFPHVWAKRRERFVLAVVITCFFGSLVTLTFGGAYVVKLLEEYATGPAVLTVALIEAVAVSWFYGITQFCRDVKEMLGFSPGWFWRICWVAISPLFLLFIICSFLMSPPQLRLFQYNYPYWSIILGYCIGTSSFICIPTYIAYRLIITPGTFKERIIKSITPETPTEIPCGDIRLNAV

SMILES	inhibition at 10 µM [1] [%]	also measured
O=C(O)c1ccc(OC[C@@H]2CNCC[C@H]2c2ccc(F)cc2)cc1 [Example 1, 4-(((3S,4R)-4-(4-fluorophenyl)piperidin-3-yl)methoxy)benzoic acid hydrochloride]	> 50	
O=C(O)c1cccc(OC[C@@H]2CNCC[C@H]2c2ccc(F)cc2)c1 [Example 2, 3-(((3S,4R)-4-(4-fluorophenyl)piperidin-3-yl)methoxy)benzoic acid hydrochloride]	40 to 50	
O=C(O)c1ccc(OC[C@@H]2CNCC[C@H]2c2ccc(F)cc2)cc1O [Example 3, 4-(((3S,4R)-4-(4-fluorophenyl)piperidin-3-yl)methoxy)-2-hydroxybenzoic acid hydrochloride]	> 50	
COc1ccc(OC[C@@H]2CNCC[C@H]2c2ccc(F)cc2)cc1C(=O)O [Example 4, 5-(((3S,4R)-4-(4-fluorophenyl)piperidin-3-yl)methoxy)-2-methoxybenzoic acid hydrochloride]	> 50	
NCCNC(=O)c1ccc(OC[C@@H]2CNCC[C@H]2c2ccc(F)cc2)cc1 [Example 5, N-(2-aminoethyl)-4-(((3S,4R)-4-(4-fluorophenyl)piperidin-3-yl)-methoxy)benzamide hydrochloride]	> 50	
CN(C)CCNC(=O)c1ccc(OC[C@@H]2CNCC[C@H]2c2ccc(F)cc2)cc1 [Example 6, N-(2-(dimethylamino)ethyl)-4-(((3S,4R)-4-(4-fluorophenyl)piperidin-3-yl)methoxy)benzamide hydrochloride]	> 50	
CN(C)CCN(C)C(=O)c1ccc(OC[C@@H]2CNCC[C@H]2c2ccc(F)cc2)cc1 [Example 7, N-(2-(dimethylamino)ethyl)-4-(((3S,4R)-4-(4-fluorophenyl)piperidin-3-yl)methoxy)-N-methylbenzamide hydrochloride]	> 50	
NC(N)=NCCNC(=O)c1ccc(OC[C@@H]2CNCC[C@H]2c2ccc(F)cc2)cc1 [Example 8, N-(2-((diaminomethylene)amino)ethyl)-4-(((3S,4R)-4-(4-fluorophenyl)piperidin-3-yl)methoxy)benzamide]	> 50	liquid gastric emptying ([2]; FIG. 1, chronic treatment, versus H2O treated group in the same model): increases; gastric emptying [2, 3]: significantly increased; gastric emptying ([2]; saline (control) mice): significantly increased
NC(=O)NCCNC(=O)c1ccc(OC[C@@H]2CNCC[C@H]2c2ccc(F)cc2)cc1 [Example 9, 4-(((3S,4R)-4-(4-fluorophenyl)piperidin-3-yl)methoxy)-N-(2-ureidoethyl)benzamide hydrochloride]	> 50	
NCCOc1ccc(OC[C@@H]2CNCC[C@H]2c2ccc(F)cc2)cc1 [Example 10, 2-(4-(((3S,4R)-4-(4-fluorophenyl)piperidin-3-yl)methoxy)phenoxy)-ethan-1-amine hydrochloride]	40 to 50	
CN(C)CCOc1ccc(OC[C@@H]2CNCC[C@H]2c2ccc(F)cc2)cc1 [Example 11, 2-(4-(((3S,4R)-4-(4-fluorophenyl)piperidin-3-yl)methoxy)phenoxy)-N,N-dimethylethan-1-amine hydrochloride]	40 to 50	
CN(C)CCCOc1ccc(OC[C@@H]2CNCC[C@H]2c2ccc(F)cc2)cc1 [Example 12, 3-(4-(((3S,4R)-4-(4-fluorophenyl)piperidin-3-yl)methoxy)phenoxy)-N,N-dimethylpropan-1-amine hydrochloride]	> 50	
OCCOc1ccc(OC[C@@H]2CNCC[C@H]2c2ccc(F)cc2)cc1 [Example 13, 2-(4-(((3S,4R)-4-(4-fluorophenyl)piperidin-3-yl)methoxy)phenoxy)ethan-1-ol hydrochloride]	> 50	
OCCOCCOc1ccc(OC[C@@H]2CNCC[C@H]2c2ccc(F)cc2)cc1 [Example 14, 2-(2-(4-(((3S,4R)-4-(4-fluorophenyl)piperidin-3-yl)methoxy)phenoxy)ethoxy)ethan-1-ol hydrochloride]	20 to 40	
O=C(O)COc1ccc(OC[C@@H]2CNCC[C@H]2c2ccc(F)cc2)cc1 [Example 15, 2-(4-(((3S,4R)-4-(4-fluorophenyl)piperidin-3-yl)methoxy)phenoxy)acetic acid hydrochloride]	20 to 40	
O=C(O)COCCOc1ccc(OC[C@@H]2CNCC[C@H]2c2ccc(F)cc2)cc1 [Example 16, 2-(2-(4-(((3S,4R)-4-(4-fluorophenyl)piperidin-3-yl)methoxy)phenoxy)-ethoxy)acetic acid hydrochloride]	20 to 40	
C[N+]1(C)CC[C@@H](c2ccc(F)cc2)[C@H](CCc2ccc3c(c2)OCO3)C1 [Example 17, (3S,4R)-3-(2-(benzo[d][1,3]dioxol-5-yl)ethyl)-4-(4-fluorophenyl)-1,1-dimethylpiperidin-1-ium iodide]	> 50	
Fc1ccc([C@@H]2CCNC[C@H]2COc2ccc3c(c2)OCO3)cc1 [paroxetine, reference compound]		gastric emptying [2, 3]: not observed; gastric emptying ([2]; saline (control) mice): not observed
